Several values for one entry are separate records, joined by “and”; a condition that tells them apart may be missing. Equal entries are not always repeated.
Key:
[1] = tested on: HeLa Tet-On cells transfected with vector alone; assay: proliferation and cell cycle of vector-transfected HeLa Tet-On cells with doxycycline; assay type: cell-based, human
Description: Using customized double stranded adapters, full length human haspin cDNA (amino acids 1-798, Higgins, Gene 267:55-69 (2001)) was ligated into the Hind III-Xba I sites of the expression vector pcDNA3 (Invitrogen) and, to generate myc-tagged haspin, cDNA encoding residues 2-798 was inserted into the pcDNA3-derived plasmid pCANmyc1. To generate a plasmid encoding EGFP-haspin, haspin cDNA encoding amino acids 2-798 is inserted into the Sac II-BamH I sites of pEGFP-C1 (Clontech). To generate inducible vectors, cDNA encoding myc-haspin from pCANmyc-haspin (Hind III-EcoR V) is blunt-ended and inserted into the Pvu II site of pTRE2/pur (BD Clontech) and Nhe I-Xba I fragments encoding EGFP-haspin or EGFP alone from pEGFP-haspin or pEGFP-C1, respectively are ligated into the Nhe I site of pTRE2pur. All constructs are verified by DNA sequencing. Transient transfection is carried out using Lipofectamine 2000 (Invitrogen). Stable transfection of HeLa Tet-On (BD Clontech) cells is carried out using Lipofectin with Plus Reagent (Invitrogen). After 24 h, cells are transferred to 96-well plates and incubated in medium containing 1 μg/ml puromycin and 100 μg/ml G418. Clones expressing myc-haspin or EGFP-haspin in the presence, but not absence, of 1 μg/ml doxycycline are selected by anti-myc immunoblotting or flow cytometric analysis of EGFP fluorescence respectively. […]

6His-haspin kinase = target: T1, 6His-haspin kinase (Homo sapiens, UniProt Q8TF76); assay: ELISA-based microtiter plate haspin kinase assay; assay type: biochemical; settings: 100 μM ATP, 10 mM MnCl2, 20 min 37° C.
T1 construct: insertion of a PCR product encoding residues 471-798 of human haspin into the PshA I site of the vector pET45b(+); 6His (N); made in house; host or cells: E. coli BL21
T1 sequence (Q8TF76 471-798): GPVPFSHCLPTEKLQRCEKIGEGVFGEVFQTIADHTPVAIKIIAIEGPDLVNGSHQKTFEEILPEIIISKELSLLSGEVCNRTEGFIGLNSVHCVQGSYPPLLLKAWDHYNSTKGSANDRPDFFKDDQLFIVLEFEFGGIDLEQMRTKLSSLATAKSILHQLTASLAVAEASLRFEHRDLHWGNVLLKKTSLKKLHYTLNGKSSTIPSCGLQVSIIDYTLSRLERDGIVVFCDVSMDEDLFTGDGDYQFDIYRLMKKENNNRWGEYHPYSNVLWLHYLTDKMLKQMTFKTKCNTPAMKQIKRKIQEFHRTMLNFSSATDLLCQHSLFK
Method: In these assays, H3-GST substrate protein (or H3-T3A-GST non-phosphorylable control) was immobilized on 96-well microtiter plates by incubation in PBS overnight at 4° C. Following washing and blocking with 1% BSA/TBS, 6His-haspin kinase was added to the wells in 50 μl total volume of Hepes-buffered saline (HBS)/100 μM ATP/10 mM MnCl2 and allowed to phosphorylate the immobilized substrate for 20 min at 37° C. After washing thrice with TBS/0.1% Tween-20, affinity-purified polyclonal anti-phospho-histone H3 (Thr-3) antibodies were added for 1 h at room temperature. After washing, antibody binding (i.e. phosphorylation) was detected using 1/2000 dilution of donkey anti-rabbit IgG-Horse Radish […] (HRP) conjugate (Jackson) followed by tetramethylbenzidine (TMB) color development (BD Biosciences). Measurement of A450 nm-A570 nm (to correct for well-to-well variation in background absorbance) was carried out after addition of H2SO4.

C[C@H]1c2cccc(O)c2C(=O)C2=C(O)[C@]3(O)C(=O)C(C(N)=O)=C(O)[C@@H](N(C)C)[C@@H]3[C@@H](O)[C@@H]21 [Doxycycline, doxycycline]
cell number relative to uninduced control ([1]; after 8 days, two experiments, vector alone): 104% and 115% | cell cycle progression ([1]; vector-transfected cells): no effect

O=C(O)CN(CCN(CC(=O)O)CC(=O)O)CC(=O)O [EDTA]
haspin kinase activity (phosphorylation of immobilized H3-GST) (6His-haspin kinase): inhibition

ARTKQTAR [H3(1-8)]
haspin kinase activity (phosphorylation of immobilized H3-GST) (6His-haspin kinase): inhibition

Source: patent US7655431B2, “Compositions and methods based upon the kinase haspin” (The Brigham and Women's Hospital, Inc., priority 2004, dated 2010)
